Values of other authors in publication PMC11359394 (Pharmaceutics, 2024).

Experiments:
[1] = tested on: CYP2C8 and CYP3A4 isoenzymes
[2] = set-up: method as in US FDA GRAS Notices; conditions: rats, dietary consumption; ref US FDA GRAS Notices

| SMILES | fraction metabolized in the liver by CYP P450 [1] | solubility increase by exploiting the polymorphs | dietary dose with no adverse effects [2] |
| --- | --- | --- | --- |
| CC(=O)O[C@H]1C(=O)[C@@]2(C)[C@H]([C@H](OC(=O)c3ccccc3)[C@]3(O)C[C@H](OC(=O)[C@H](O)[C@@H](NC(=O)c4ccccc4)c4ccccc4)C(C)=C1C3(C)C)[C@]1(OC(C)=O)CO[C@@H]1C[C@@H]2O [Paclitaxel] | Approximately 90% | 60 fold |  |
| C=C1C[C@@]23CC[C@H]4[C@@](C)(CCC[C@@]4(C)C(=O)O[C@@H]4O[C@H](CO)[C@@H](O)[C@H](O)[C@H]4O)[C@@H]2CC[C@]1(O[C@@H]1O[C@H](CO)[C@@H](O)[C@H](O)[C@H]1O)C3 [RUB, Rubusoside] |  |  | up to 2 g/kg |
